Measurements taken from the NIST ThermoML archive (doi:10.1021/je050216m).
Where “and” joins values, the source holds several entries; their conditions need not be identical. Equal values may be shown once. ± gives the expanded uncertainty stated by the source.

Settings: Crystal, Closed cell (Static) method

c1ccc2ccccc2c1 [naphthalene]
Settings	vapor or sublimation pressure
258.48 K	0.00011 ± 0.0001 kPa
258.49 K	0.00011 ± 0.0001 kPa
263.48 K	0.00022 ± 0.0001 kPa
263.49 K	0.00023 ± 0.0001 kPa
268.48 K	0.00042 ± 0.0001 kPa and 0.00041 ± 0.0001 kPa and 0.00043 ± 0.0001 kPa
273.48 K	0.00078 ± 0.0001 kPa and 0.00077 ± 0.0001 kPa
273.49 K	0.00078 ± 0.0001 kPa and 0.00077 ± 0.0001 kPa
273.68 K	0.0008 ± 0.0001 kPa and 0.00081 ± 0.0001 kPa
278.48 K	0.00137 ± 0.00012 kPa and 0.00138 ± 0.00012 kPa
278.49 K	0.00138 ± 0.00012 kPa [middle of 4 runs]
283.49 K	0.00241 ± 0.00012 kPa
288.49 K	0.00411 ± 0.00014 kPa and 0.0041 ± 0.00014 kPa
293.49 K	0.00688 ± 0.00016 kPa
298.49 K	0.0114 ± 0.00022 kPa and 0.0113 ± 0.00022 kPa
303.5 K	0.0183 ± 0.00029 kPa and 0.0182 ± 0.00029 kPa
308.51 K	0.029 ± 0.00041 kPa
313.52 K	0.0454 ± 0.00058 kPa and 0.0455 ± 0.00058 kPa
